According to article PMC9936582, “Sulfamate Acetamides as Self-Immolative Electrophiles for Covalent Ligand-Directed Release Chemistry” (Journal of the American Chemical Society, 2023):

System: Mino cells
Experiment: Competitive pull-down proteomics with ibrutinib alkyne probe in Mino cells
Type: cell-based, human
Settings: 1 µM compound 1 h
Procedure: (10 μM). This was followed by a reaction with biotin-azide using CuAAC, enrichment of the labeled proteins, and their quantification by tryptic digestion and LC/MS/MS analysis.
The samples were then precipitated with methanol: chloroform (1 mL of methanol, 250 μL of chloroform, and 750 μL of water), washed with 1 mL of methanol, and air-dried. The samples were solubilized and bound to streptavidin agarose beads in PBS for 3 h at 25 °C. The beads were washed, centrifuged, and resuspended in Tris 50 mM pH 8 and transferred to a clean Eppendorf tube. After this, the bound proteins were eluted by boiling with 5% SDS then reduced with DTT, alkylated with iodoacetamide, and digested with trypsin. The samples were run on LC/MS/MS. The detailed procedure is available in the Supplementary Information. The mass spectrometry proteomics data have been deposited to the ProteomeXchange Consortium via the PRIDE[67] partner repository with the dataset identifiers PXD038301 and PXD038375.
400 µL of 0.1% IGEPAL/PBS were added, and the beads were washed 3 times with 0.1% IGEPAL/PBS, 3 times PBS and 3 times water. The peptides were eluted by incubation with 200 µL of 50% acetonitrile + 0.1% TFA for 5 min, followed by two more portions of 100 µL of 50% acetonitrile + 0.1% TFA. The samples were dried by speedvac, and further purified using Oasis desalting columns (Waters), after which they were dried and run on the instrument.
Pull-down samples preparation […]
incubation with 10 μM “probe 4” for another hour. The samples were prepared in quadruplicates. The cells were washed with cold PBS, from the flasks and frozen. Then, each sample was lysed in 200 μL of […]
The protein in the supernatant was quantified using BCA. For each sample, 250 μL of 1.7 mg/mL was prepared. At this point, 5 μL of 5 mM biotin azide and 9 μL of 100 mM CuSO4/THPTA complex were added. The click reaction was initiated by the addition of 7.5 μL of 150 mM sodium ascorbate, and the samples are incubated at room temperature for 1 h. The samples were then precipitated with methanol/chloroform (1 mL methanol, 250 μL chloroform, 750 μL water), washed with 1 mL of methanol, and air-dried. […]
and heated to 95 °C for 5 min. The samples were then diluted to 1.5 mL with PBS, and 50 μL of streptavidin agarose beads, prewashed with 0.2% SDS in PBS, was added, followed by 3 h incubation at room temperature. Following the incubation, the beads were centrifuged at 2000g for 2 min and washed four times with the following buffers (4 mL in each wash): 2% SDS; 0.1% sodium deoxycholate, 1% Triton X-100, 0.5 M NaCl, 1 mM EDTA, 50 mM HEPES pH = 7.5; 0.25 M NaCl, 0.5% IGEPAL, 0.5% sodium deoxycholate, 1 mM EDTA, 10 mM Tris pH = 8.1; 50 mM Tris pH = 7.4, 50 mM NaCl. […]
with heating to 95 °C for 6 min and occasional vortexing. Finally, the beads were spun down (2 min 2000g) and 80 μL of supernatant was removed to separate tubes. […]
had cooled, 4 μL of iodoacetamide (0.2 M) were added, and the samples were incubated in the dark for 40 min at room temperature. […]
samples were diluted 6-fold with 90% methanol + 50 mM ammonium bicarbonate. The samples were then […]
loaded on S-trap micro columns (Protify), and the columns were washed three times with 150 μL of 90% methanol + 50 mM ammonium bicarbonate. Then, 20 μL of 0.05 μg/μL of trypsin in 50 mM ammonium bicarbonate was added to the columns and the samples were incubated at 47 °C for 90 min. Then, 40 μL of 50 mM ammonium bicarbonate was added, followed by centrifugation and addition of 1 μL of 0.5 μg/μL trypsin to the eluate, which was incubated at 37 °C overnight. The column itself was then eluted using 40 μL of 0.2% formic acid and 40 μL 0.2% formic acid in 50% acetonitrile into a separate tube, which was kept at 4 °C. The two eluates were then combined and evaporated. The samples were further desalted using […]

## Nc1ncnc2c1c(-c1ccc(Oc3ccccc3)cc1)nn2[C@@H]1CCCN(C(=O)COS(=O)(=O)NCc2ccccc2)C1 [3d]
4F2_HUMAN
  Log2(Fold Change): -0.3468
AATM_HUMAN
  Log2(Fold Change): 1.62
ACSF3_HUMAN
  Log2(Fold Change): 0.1421
AHNK_HUMAN
  Log2(Fold Change): 2.176
ALG1_HUMAN
  Log2(Fold Change): -0.2223
ANXA1_HUMAN
  Log2(Fold Change): 2.107
APEX1_HUMAN
  Log2(Fold Change): 0.5549
ARP3_HUMAN;ARP3B_HUMAN;ARP3C_HUMAN
  Log2(Fold Change): 0.3683
AT1A1_HUMAN;AT1A2_HUMAN;AT1A4_HUMAN;ATP4A_HUMAN;AT12A_HUMAN
  Log2(Fold Change): 0.9797
ATP5H_HUMAN
  Log2(Fold Change): 0.3377
ATPK_HUMAN
  Log2(Fold Change): 0.2949
ATPO_HUMAN
  Log2(Fold Change): -0.283
ATX10_HUMAN
  Log2(Fold Change): 0.3503
BST2_HUMAN
  Log2(Fold Change): 0.9798
BZW1_HUMAN
  Log2(Fold Change): 0.5267
C1TM_HUMAN
  Log2(Fold Change): -0.1466
CALL5_HUMAN
  Log2(Fold Change): -0.1469
CD20_HUMAN
  Log2(Fold Change): -0.02247
CD38_HUMAN
  Log2(Fold Change): 0.01573
CLCA_HUMAN
  Log2(Fold Change): -0.02966
CLH1_HUMAN;CLH2_HUMAN
  Log2(Fold Change): 2.15
COX2_HUMAN
  Log2(Fold Change): -0.2094
CRERF_HUMAN
  Log2(Fold Change): -0.7334
DD19B_HUMAN;DD19A_HUMAN
  Log2(Fold Change): -0.05233
DDX3X_HUMAN;DDX3Y_HUMAN;DDX4_HUMAN
  Log2(Fold Change): 1.382
DNJC7_HUMAN
  Log2(Fold Change): 0.6525
DSC1_HUMAN
  Log2(Fold Change): -0.7969
EF1B_HUMAN
  Log2(Fold Change): -0.6176
EPIPL_HUMAN
  Log2(Fold Change): 0.9511
FPPS_HUMAN
  Log2(Fold Change): -0.6242
GCR_HUMAN
  Log2(Fold Change): 0.4122
GLYM_HUMAN;GLYC_HUMAN
  Log2(Fold Change): 1.206
GSDMA_HUMAN
  Log2(Fold Change): 0.09253
HMCS1_HUMAN
  Log2(Fold Change): 0.6183
HXK2_HUMAN;HXK3_HUMAN
  Log2(Fold Change): 0.4444
IF4A1_HUMAN
  Log2(Fold Change): 0.3836
IF4A3_HUMAN
  Log2(Fold Change): 0.3127
IF4H_HUMAN
  Log2(Fold Change): 0.66
IGLL5_HUMAN;IGL1_HUMAN;IGLC1_HUMAN
  Log2(Fold Change): -2.924
LAPM5_HUMAN
  Log2(Fold Change): 0.7164
LAT1_HUMAN
  Log2(Fold Change): -0.2987
LMNA_HUMAN
  Log2(Fold Change): 1.21
MATR3_HUMAN
  Log2(Fold Change): 1.3535
MBB1A_HUMAN
  Log2(Fold Change): 0.0529
MCCA_HUMAN
  Log2(Fold Change): -0.3018
MIC19_HUMAN
  Log2(Fold Change): 0.1905
MP2K7_HUMAN
  Log2(Fold Change): 1.5282
NCEH1_HUMAN
  Log2(Fold Change): 1.226
NT5D1_HUMAN
  Log2(Fold Change): 2.611
NUCL_HUMAN
  Log2(Fold Change): 0.5701
OTUB1_HUMAN
  Log2(Fold Change): 0.2048
P121C_HUMAN;P121A_HUMAN
  Log2(Fold Change): 0.4168
PARK7_HUMAN
  Log2(Fold Change): 1.57
PCKGM_HUMAN
  Log2(Fold Change): 0.1766
PEBP1_HUMAN
  Log2(Fold Change): -0.8247
PEPL_HUMAN
  Log2(Fold Change): 0.8796
PFKAL_HUMAN
  Log2(Fold Change): -0.4948
PGK1_HUMAN;PGK2_HUMAN
  Log2(Fold Change): 0.5127
PIP_HUMAN
  Log2(Fold Change): 0.8481
PLAK_HUMAN;CTNB1_HUMAN
  Log2(Fold Change): -0.4311
POF1B_HUMAN
  Log2(Fold Change): 0.5955
PSA3_HUMAN
  Log2(Fold Change): 0.515
PSB8_HUMAN
  Log2(Fold Change): 0.8443
RAB1A_HUMAN;RAB1B_HUMAN;RAB1C_HUMAN
  Log2(Fold Change): 0.5794
RANG_HUMAN;IPKB_HUMAN
  Log2(Fold Change): -0.3375
RAP1B_HUMAN;RAP1A_HUMAN;RP1BL_HUMAN;RAB3D_HUMAN
  Log2(Fold Change): 0.1236
RFTN1_HUMAN
  Log2(Fold Change): 0.055
RL13A_HUMAN;R13P3_HUMAN
  Log2(Fold Change): 0.2889
RL18_HUMAN
  Log2(Fold Change): 0.278
RLA1_HUMAN
  Log2(Fold Change): 1.604
RN3P2_HUMAN
  Log2(Fold Change): -0.7545
RS28_HUMAN
  Log2(Fold Change): 1.706
RTN4_HUMAN
  Log2(Fold Change): -0.003108
RUVB2_HUMAN
  Log2(Fold Change): 0.8199
S38A1_HUMAN
  Log2(Fold Change): 0.5709
S61A1_HUMAN;S61A2_HUMAN
  Log2(Fold Change): 0.03923
SAE2_HUMAN
  Log2(Fold Change): 0.8525
SATT_HUMAN
  Log2(Fold Change): -0.2942
SCRB1_HUMAN
  Log2(Fold Change): 0.8748
SIAT1_HUMAN
  Log2(Fold Change): 0.1522
SO4A1_HUMAN
  Log2(Fold Change): 1.533
SPB4_HUMAN
  Log2(Fold Change): 2.369
SPB12_HUMAN
  Log2(Fold Change): -0.3346
SSDH_HUMAN
  Log2(Fold Change): 1.965
SUCB1_HUMAN
  Log2(Fold Change): 0.8691
TAP1_HUMAN
  Log2(Fold Change): -1.533
TAP2_HUMAN;ABCB8_HUMAN;ABCBA_HUMAN
  Log2(Fold Change): 0.8469
TBB2B_HUMAN;TBB2A_HUMAN
  Log2(Fold Change): -0.1459
TSN_HUMAN
  Log2(Fold Change): -0.1715
TX264_HUMAN
  Log2(Fold Change): 0.3926
UB2V2_HUMAN;UB2V1_HUMAN
  Log2(Fold Change): 1.306
UBP5_HUMAN
  Log2(Fold Change): -0.01896
UBP14_HUMAN
  Log2(Fold Change): 1.116
URP2_HUMAN
  Log2(Fold Change): 0.2486
USMG5_HUMAN
  Log2(Fold Change): 0.3682
VDAC1_HUMAN
  Log2(Fold Change): 0.3637
VEZA_HUMAN
  Log2(Fold Change): -0.126
XPO2_HUMAN
  Log2(Fold Change): 0.1341
XPO5_HUMAN
  Log2(Fold Change): 0.1456
ZDHC8_HUMAN
  Log2(Fold Change): -1.527
